The text below walks through data of ChEMBL document CHEMBL3507680, “University of Dundee, Gates Library screen for HepG2 cell viability”.

Each structure is given as a SMILES string.

The series is described as follows: Human HepG2 cell viability assay in 384 well format. It is filed as toxicity, cell-based. Further details: dose 125 nL, time 70.5 hour; concentration not given beside the values. Conditions: HepG2 cells, read-out: Inhibition.

For the compound `O=C(CN1C[C@H]2CC[C@@H]1CN(Cc1ccccn1)C2)Nc1ccccc1`, the cytotoxicity at 70.5 h was -6.28%.

Consider `COc1ccccc1CCC(=O)N1CCCC(OCc2cccnc2)C1` (stereo unspecified), for which the cytotoxicity at 70.5 h was found to be 26.8%.

Take `NC(=O)c1cnc2n1CCN(C(=O)c1ccc(Cn3cccc3)cc1)C2`: the cytotoxicity at 70.5 h is 5.38%.

On to `CCc1cc(CN(C)C(=O)c2cnc3c(c2)nc(N)n3CC)on1`, for which the cytotoxicity at 70.5 h is -2.5%.

For `CCn1cc(-c2n[nH]c(=O)n2-c2ccc3c(c2)OCO3)c(C)n1`, the cytotoxicity at 70.5 h is -4.59%.

Turning to `CN(C)CCN(C)C[C@@H]1CN(Cc2cccc(O)c2)C[C@@H]1CO`, the cytotoxicity at 70.5 h was -3.65%.

As to `O=C1CC(NCc2ccc(Cl)s2)CN1Cc1cccc(F)c1` (stereo unspecified), the cytotoxicity at 70.5 h was -7.49%.

Regarding `CCc1cc(NCCS(=O)(=O)N(C)C)nc(N2CCOCC2)n1`, the cytotoxicity at 70.5 h is -13.2%.

`CCC(OC)C(=O)NCC1CCN(c2cnn(C)c(=O)c2)CC1` (stereo unspecified): the cytotoxicity at 70.5 h is -3.42%.

In the case of `OCC1(O)CCCN(Cc2noc(-c3ccccc3)n2)C1` (stereo unspecified), the cytotoxicity at 70.5 h was -10.2%.

As for `CCOCCn1nc(C)cc1C(=O)N1CC[C@](O)(CC)[C@H](O)C1`, the cytotoxicity at 70.5 h was 3.37%.

Turning to `CCCC(C)NC1CCN(c2ccc(-n3ccnc3C)cc2)CC1` (stereo unspecified), the cytotoxicity at 70.5 h was -2.41%.

Turning to `CCN1CCC(CNC(=O)C(c2ccc(F)cc2)N(C)C)(N(C)C)CC1` (stereo unspecified), the cytotoxicity at 70.5 h is -6.97%.

Turning to `CCN(CC)CCC(=O)NCc1cc2n(n1)CCN(C(=O)N(C)C)C2`, the cytotoxicity at 70.5 h was -11.8%.

In the case of `CCC[C@H]1CN(C2CCOCC2)C[C@@H]1NC(=O)CCc1cnccn1`, the cytotoxicity at 70.5 h amounted to 6.02%.

`CO[C@H]1CN(C(C)C)C[C@@H]1NC(=O)Nc1ccc2oc(C)cc2c1`: the cytotoxicity at 70.5 h was determined as 26.1%.

With `O=C(c1ccnc(CC2COc3ccccc3C2)c1)N1CCCC1` (stereo unspecified), the cytotoxicity at 70.5 h is -23.5%.

Regarding `CCN1CCCC(CN2CCn3nc(CNC(=O)N(C)C)cc3C2)C1` (stereo unspecified), the cytotoxicity at 70.5 h is -8.51%.

In the case of `CN1CC2(CCCN(C(=O)c3cnc4ccc(F)cc4c3O)C2)OC1=O` (stereo unspecified), the cytotoxicity at 70.5 h is -6.43%.

Take `Cc1nccn1-c1ccc(NC(=O)C2CCCN2CC2CC2)cc1` (stereo unspecified): the cytotoxicity at 70.5 h is -1.14%.

As for `Cc1c(NC(=O)N(C)CCCc2cnn(C)c2)cnn1C`, the cytotoxicity at 70.5 h is -12.2%.

Take `CN1CCCN(C[C@@H]2CN(c3nc(C(N)=O)cs3)C[C@@H]2CO)CC1`: the cytotoxicity at 70.5 h was determined as 4.88%.

For `Cc1cc(N2CCCN(c3nc(C)nc(C)c3C)CC2)ccn1`, the cytotoxicity at 70.5 h was -11%.

As to `CS(=O)(=O)N1CCC[C@H]1c1ncnn1-c1ccc2c(c1)OCO2`, the cytotoxicity at 70.5 h was -1.95%.

Turning to `CCCc1ccc(C(=O)N2CCc3c(nc(N(C)C)[nH]c3=O)C2)cc1`, the cytotoxicity at 70.5 h is -5.16%.

Consider `Cn1ccnc1CN1CCC(Cn2cc(-c3ccccc3)nn2)CC1`, for which the cytotoxicity at 70.5 h came to 3.07%.

`COc1nccnc1N1CCC2(CC1)[C@H](O)C[C@@H]2OCCN(C)C`: the cytotoxicity at 70.5 h was -7.06%.

Consider `CSc1nccc(N2CCCC(c3nccn3C(C)C)C2)n1` (stereo unspecified), for which the cytotoxicity at 70.5 h came to 17.1%.

As to `CSCC(=O)N[C@H]1CN(Cc2c(C)noc2C)C[C@@H]1C(C)C`, the cytotoxicity at 70.5 h was -0.898%.

As to `CCc1cc(NC2CCS(=O)(=O)CC2)nc(N2CCCCC2)n1`, the cytotoxicity at 70.5 h was 22.5%.

Consider `O=C(O)c1ccccc1C1CCN(C2Cc3ccccc3C2)C1` (stereo unspecified), for which the cytotoxicity at 70.5 h was -1.24%.

Take `Cc1ccc2nc(-c3cnc(N)nc3)c(C)c(C(=O)N(C)C)c2c1`: the cytotoxicity at 70.5 h was found to be 11.2%.

Consider `NC(=O)N1CCCC(c2nc(-c3cccnn3)no2)C1` (stereo unspecified), for which the cytotoxicity at 70.5 h is -5.18%.

For the compound `COCCN1C(=O)[C@H]2CC[C@@H]1CN(c1ncccn1)C2`, the cytotoxicity at 70.5 h came to 11.5%.

Regarding `CN1CCCCCC1C(=O)N1CCCN(c2ccccc2)CC1` (stereo unspecified), the cytotoxicity at 70.5 h was found to be 4.68%.

`COc1cccc(CCC2CCCN(C(=O)c3cnccn3)C2)c1` (stereo unspecified): the cytotoxicity at 70.5 h was -7.12%.

In the case of `Cc1cc(C(=O)N2CCC3(CCNCC3)CC2)c2cccc(C)c2n1`, the cytotoxicity at 70.5 h stood at 43.8%.

Take `CCc1nc(C)c([C@H]2CN(C)C[C@@H]2C(=O)Nc2ccccc2F)[nH]1`: the cytotoxicity at 70.5 h was -13.9%.

Consider `Cc1ccc(CCNc2ncnc3sc4c(c23)CCNC4)o1`, for which the cytotoxicity at 70.5 h was -8.67%.

Take `Cc1cc(-n2cccn2)ccc1CN1CCOCC(CN(C)C)C1` (stereo unspecified): the cytotoxicity at 70.5 h worked out at 27.5%.

For the compound `O=C(O)CSc1nnc(-c2ccn[nH]2)n1-c1ccccc1Cl`, the cytotoxicity at 70.5 h was -6.93%.

With `Cn1ncc2c(N[C@H]3CC[C@@H](N)CC3)nc(C(C)(C)C)nc21`, the cytotoxicity at 70.5 h amounted to 6.09%.

`CN(CC1(O)CCCN(Cc2cccc(F)c2F)C1=O)C1CCCCC1` (stereo unspecified): the cytotoxicity at 70.5 h was -0.975%.

As for `O=C(c1ccc(O)cn1)N1CCOC(Cc2cccc(C(F)(F)F)c2)C1` (stereo unspecified), the cytotoxicity at 70.5 h was 22.6%.

For `Cc1cc(N2CCCN(Cc3ccc(C)o3)CC2)ccn1`, the cytotoxicity at 70.5 h was -3.18%.

`CN(C)CCNc1ccc(-c2nc(-c3ccccc3F)no2)cn1`: the cytotoxicity at 70.5 h turned out to be 0.837%.

Regarding `CN(C)C(C(=O)NCCn1cccc1)c1cccc(F)c1` (stereo unspecified), the cytotoxicity at 70.5 h is -4.48%.

For the compound `COCCCN1CC2(CCN(C(=O)c3ncc(F)cc3F)CC2)CC1=O`, the cytotoxicity at 70.5 h was -9.33%.

For the compound `CC1(C)OC(=O)N(CC(=O)N2CCC(c3ccccc3Cl)C2)C1=O` (stereo unspecified), the cytotoxicity at 70.5 h was -6.23%.

Turning to `CCC[C@@H]1CN(c2ncnc3sccc23)C[C@H]1NS(C)(=O)=O`, the cytotoxicity at 70.5 h was -4.58%.

In the case of `COc1cccc([C@H]2CN(C(=O)c3cc(C)on3)C[C@@H]2N)c1`, the cytotoxicity at 70.5 h was -10.9%.

For the compound `CSCc1ccc(N(C)CC2CCCN(C(C)C)C2)nc1` (stereo unspecified), the cytotoxicity at 70.5 h was -2.8%.

Regarding `O=C(C1CC1)N1CCCN(c2ncnc3c2CCNCC3)CC1`, the cytotoxicity at 70.5 h was -6.41%.

As to `CC(C)[C@@H]1CN(C(=O)C2(c3ccccc3)CCN(C)CC2)C[C@H]1C(=O)O`, the cytotoxicity at 70.5 h was -5.2%.

Take `CCCSc1ccccc1NC(=O)N1CCN(C(=O)c2ccc[nH]2)CC1`: the cytotoxicity at 70.5 h is -1.4%.

With `CCN(Cc1cnn(C)c1)C[C@H]1CC[C@@H](Cc2ccc(CO)cc2)O1`, the cytotoxicity at 70.5 h is -3.31%.

In the case of `CN1C(=O)[C@H]2CC[C@@H]1CN(c1ncnc3ccsc13)C2`, the cytotoxicity at 70.5 h worked out at 11.8%.

With `Cn1ncc2c(NCCn3cccc3)nc(C3CCCC3)nc21`, the cytotoxicity at 70.5 h is -5.71%.

`COc1ccc(CC(=O)N2CCCC(Cn3cc(CN)nn3)C2)cc1` (stereo unspecified): the cytotoxicity at 70.5 h was -4.47%.

Regarding `CCCN1CCCn2nc(CNC(=O)C3CCOC3)cc2C1` (stereo unspecified), the cytotoxicity at 70.5 h was -2.94%.

`COCCN(C)CC(=O)N1C[C@@H](C)[C@](O)(C(C)C)C1`: the cytotoxicity at 70.5 h is -1.28%.

Consider `CCN(CC)C(=O)c1ccc(Cl)c(NC(=O)c2csnn2)c1`, for which the cytotoxicity at 70.5 h was -10.1%.

As for `Cc1cnccc1N1CCN(C[C@]2(O)CCCN3CCCC[C@@H]32)CC1`, the cytotoxicity at 70.5 h was 4.29%.

For the compound `CC(C)n1cnnc1CN(C)Cc1ccc(CN(C)S(C)(=O)=O)o1`, the cytotoxicity at 70.5 h is -2.72%.

Turning to `COCC(=O)N(Cc1cccnc1)CC1CCCN(C2CCCCC2)C1` (stereo unspecified), the cytotoxicity at 70.5 h is -5.51%.

As for `Cc1ncc(C(=O)N2CCCCC2c2nc3cc(F)ccc3[nH]2)c(O)n1` (stereo unspecified), the cytotoxicity at 70.5 h was -20%.

Regarding `O=C(CCc1cc2n(n1)CCCN(C(=O)c1ccncc1)C2)NC1CC1`, the cytotoxicity at 70.5 h is -6.73%.

On to `CCCOc1cc(Cl)c(CN2CCNC(C(=O)NC3CC3)C2)cc1OC` (stereo unspecified), for which the cytotoxicity at 70.5 h is -10.6%.

For the compound `COc1ccc2c(c1)CC(NCCCn1nc(C)nc1C)CC2` (stereo unspecified), the cytotoxicity at 70.5 h is -9.14%.

With `CCCc1nnc(NC(C)c2ccc(F)cc2)o1` (stereo unspecified), the cytotoxicity at 70.5 h was -8.69%.

For the compound `CC(C)CC(O)C1CCN(Cc2ccc(N(C)C)nc2)CC1` (stereo unspecified), the cytotoxicity at 70.5 h was 23.2%.

In the case of `CCCn1ccnc1CN1CCCC(O)(CN(C)C)CC1` (stereo unspecified), the cytotoxicity at 70.5 h was -3.55%.

Regarding `COc1ccc(C(C(=O)O)N2CCC(Cn3cccn3)CC2)cc1F` (stereo unspecified), the cytotoxicity at 70.5 h turned out to be 22.7%.

Regarding `Cc1nn(CCN2CCSCC2)cc1CNCc1ccccn1`, the cytotoxicity at 70.5 h is -5.69%.

Regarding `O=C(c1ccc(=O)[nH]c1)N1CCC(Oc2cccc(C(F)(F)F)c2)CC1`, the cytotoxicity at 70.5 h turned out to be 3.69%.

For `COCC1(Nc2nc(C)nc3c2cnn3C)CCCC1`, the cytotoxicity at 70.5 h was determined as 3.28%.

As to `Cn1ncc(N2CCN(Cc3ccc(S(C)(=O)=O)cc3)CC2)cc1=O`, the cytotoxicity at 70.5 h was -5.42%.

On to `CC(=O)N1CCc2c(nc(N(C)C)nc2N(C)CCCC2CCCO2)C1` (stereo unspecified), for which the cytotoxicity at 70.5 h turned out to be 10.7%.

In the case of `COCCNS(=O)(=O)c1cccc2c1CN(C(=O)c1cnccn1)CC2`, the cytotoxicity at 70.5 h is -3.11%.

`C[C@@H]1CN(C2CCN(c3ccccc3F)CC2)C[C@]1(C)O`: the cytotoxicity at 70.5 h is -6.48%.

With `Cn1c(-c2ccccc2Cl)nc2cc(C(=O)NCC3(CO)CC3)cnc21`, the cytotoxicity at 70.5 h is -10%.

For the compound `COC(=O)C(C)(C)NC(=O)c1cc(COc2ccccc2OC)[nH]n1`, the cytotoxicity at 70.5 h was 10.6%.

Turning to `OCC1(O)CCN(Cc2ccc(C3CCCCO3)o2)CC1` (stereo unspecified), the cytotoxicity at 70.5 h is -1.61%.

As to `O=C(NCCC1COc2ccccc2O1)c1ccc(-c2cc[nH]n2)nc1` (stereo unspecified), the cytotoxicity at 70.5 h was -4.68%.

With `CCC[C@H]1CN(S(C)(=O)=O)C[C@@H]1NC(=O)COC(C)C`, the cytotoxicity at 70.5 h was -5.47%.

With `COc1ccc(F)c(-c2ncccc2C(=O)N2C[C@H]3CC[C@@H]2C3)c1`, the cytotoxicity at 70.5 h was -9.45%.

Consider `Cc1ccc(C(=O)O)cc1CNC(=O)CN1CC[C@](C)(O)C(C)(C)C1`, for which the cytotoxicity at 70.5 h was -6.88%.

Turning to `Cc1ccsc1-c1nccn1CCS(=O)(=O)N1CCCC1`, the cytotoxicity at 70.5 h was determined as 8.18%.

On to `Cc1ccc(C(=O)N2CCCC(Cn3cc(C(C)(C)N)nn3)C2)s1` (stereo unspecified), for which the cytotoxicity at 70.5 h is -4.81%.

On to `O=C(Cc1ccccc1C(F)(F)F)N1CCC2(CC1)[C@H](O)C[C@@H]2O`, for which the cytotoxicity at 70.5 h was -6.88%.

Consider `O=c1cc(N2CCNCC2)cnn1CCc1ccc(F)cc1`, for which the cytotoxicity at 70.5 h is -4.81%.

Turning to `Cc1ccc(C)c(-n2cc(CN3CC[C@@H](O)C3)c(-c3ccccc3)n2)c1`, the cytotoxicity at 70.5 h was -0.782%.

With `O=C1CN(Cc2cn(C3CCN(C4CSCCSC4)CC3)nn2)CCN1`, the cytotoxicity at 70.5 h was -13.2%.

As to `CN1[C@H](CO)C[C@H](CNCc2ccc(Cl)c(F)c2)[C@@H]1c1ccccc1F`, the cytotoxicity at 70.5 h is -3.08%.

On to `COCCn1cnnc1C(C)NC(=O)c1[nH]c2c(C)cc(C)cc2c1C` (stereo unspecified), for which the cytotoxicity at 70.5 h came to 14%.

On to `CCCC(=O)N(Cc1ccncc1)C(C)CC` (stereo unspecified), for which the cytotoxicity at 70.5 h was -6.83%.
